Data set [1] has as its system pandemic H1N1 A/Lux/46/2009. In kind it is cell-based, influenza A virus.
A short description of the next data set: in vitro. Conditions: human.
Data set [2] has as its system H1N1 A/Puerto Rico/8/34-NS116-GFP. Description: Antiviral effect against GFP reporter virus on A549 cells. Conditions: for SI (CC50/EC50): CC50 A549 XTT / EC50 reporter virus; for EC50: Influenza A virus, H1N1, A549, 24 h. (Tetrazolium assays rely on reduction of a dye to a coloured formazan, in cell work by metabolically active cells.)
Data set [3] in a line: Tannin depletion with hide powder, phenols by Folin-Ciocalteu. Conditions: pyrogallol equivalents normalized to untreated sample.
Data set [4] is described as follows: XTT cytotoxicity assay on A549 cells. Conditions: human.

“And” between values parts separate entries of the source, which are not always exact repeats. Equal values may be shown once. Some results are limits rather than exact numbers.

Regarding `O=C(O[C@@H]1Cc2c(O)cc(O)cc2O[C@@H]1c1cc(O)c(O)c(O)c1)c1cc(O)c(O)c(O)c1` [EGCG, (−)-epigallocatechin gallate], the “Lower viral titer after virus preincubation” value in data set [1] is listed as around 7 fold. In addition, the CC50 at 24 h in “in vitro” is 1.03 mM and 472 µg/mL. Further, in data set [2], the “SI (CC50/EC50)” value was found to be 85; the EC50 (in general, the concentration giving half of the maximal effect) was 12.1 µM and 5.6 µg/mL. The “Remaining phenol content after hide powder treatment” value in data set [3] is given as “intermediate reduction”.
`O=C(OC[C@H]1O[C@@H](OC(=O)c2cc(O)c(O)c(OC(=O)c3cc(O)c(O)c(O)c3)c2)[C@H](OC(=O)c2cc(O)c(O)c(OC(=O)c3cc(O)c(O)c(O)c3)c2)[C@@H](OC(=O)c2cc(O)c(O)c(OC(=O)c3cc(O)c(O)c(O)c3)c2)[C@@H]1OC(=O)c1cc(O)c(O)c(OC(=O)c2cc(O)c(O)c(O)c2)c1)c1cc(O)c(O)c(OC(=O)c2cc(O)c(O)c(O)c2)c1` [Tannic acid, tannic acid]: the “SI (CC50/EC50)” value in data set [2] turned out to be 30.7.
With `O=C(OC[C@H]1O[C@@H](OC(=O)c2cc(O)c(O)c(O)c2)[C@H](OC(=O)c2cc(O)c(O)c(O)c2)[C@@H](OC(=O)c2cc(O)c(O)c(O)c2)[C@@H]1OC(=O)c1cc(O)c(O)c(O)c1)c1cc(O)c(O)c(O)c1` [Pentagalloylglucose, penta-O-galloyl-β-D-glucose], in data set [4], the CC50 at 24 h was 779 µM and 733 µg/mL. In addition, in data set [2], the “SI (CC50/EC50)” value is recorded as 40.0; the EC50 is 19.5 µM and 18.3 µg/mL. Besides, the “SI (CC50/EC50)” value in data set [2] (listed as pentagalloylglucose) turned out to be 40.
In the case of `O=C(O)c1cc(O)c(O)c(O)c1` [Gallic acid, Gallic acid monohydrate], in data set [4], the CC50 at 24 h was 770 µM and 145 µg/mL. The EC50 in data set [2] is 50.8 µM and 9.6 µg/mL. In addition, the “Remaining phenol content after hide powder treatment” value in data set [3] was 89 % of untreated.
`O=C(OC[C@H]1OC(O)[C@@](O)(COC(=O)c2cc(O)c(O)c(O)c2)[C@@H]1O)c1cc(O)c(O)c(O)c1` (some centres unmarked) [Hamamelitannin, hamamelitannin] registered an EC50 in data set [2] above 10 mM.

For the origin of these results see paper PMC3909258, “Tannins from Hamamelis virginiana Bark Extract: Characterization and Improvement of the Antiviral Efficacy against Influenza A Virus and Human Papillomavirus” (PLoS ONE, 2014).
